# Experimental data: patent US20080182978A1, “ANTI-NGF ANTIBODIES AND METHODS USING SAME” (RINAT NEUROSCIENCE CORP, priority 2002, published 2008)
# B1: E3: humanized, affinity matured anti-NGF antagonist antibody; variable regions SEQ ID NO:1 and 2; human IgG2a (A330P331 to S330S331), kappa (antibody, V domains shown)
# VH: QVQLQESGPGLVKPSETLSLTCTVSGFSLIGYDLNWIRQPPGKGLEWIGIIWGDGTTDYNSAVKSRVTISKDTSKNQFSLKLSSVTAADTAVYYCARGGYWYATSYYFDYWGQGTLVTVS
# VL: DIQMTQSPSSLSASVGDRVTITCRASQSISNNLNWYQQKPGKAPKLLIYYTSRFHSGVPSRFSGSGSGTDFTFTISSLQPEDIATYYCQQEHTLPYTFGQGTKLEIKRT
# modifications: human IgG2a constant (A330S/P331S) and kappa constant missing
# Assays:
# Type in all cases: in vivo, rat
# [1] = system: complete Freund's adjuvant (CFA)-induced chronic arthritis; experiment: CFA arthritis rats, hindpaw weight; settings: arthritic rats; E3 1 mg/kg or 911 10 mg/kg i.v. D14+D19, indomethacin 3 mg/kg p.o. over 10 days; D24
# Experimental: (§1) On Day 24 (5 days after the last i.v. bolus injection or 24 hours after the last p.o. administration) (after X-rays radiographies), each animal hindpaw (arthritic and non arthritic rats) was weighed and was collected in a labelled polyethylene vial. Tissue samples were frozen in liquid nitrogen and stored at −80° C.
# (§2) All results were reported as Mean ±S.E.M. of 10 rats in each group at each time point. Paw volume was expressed in ml calculated from the mean value of the right and left paw volume. Arthritis index was calculated from the sum of the score obtained for each of the 4 paws. The nociceptive response was evaluated by the intensity of the level of vocalization recorded for each animal (mean of 4 values: 2 times/paw) in mV. The percentage inhibition of the nociceptive response was calculated from the mean value of the vehicle-treated arthritic group [(mean value of vehicle-treated arthritic group−mean value of treated arthritic group/mean value of vehicle-treated arthritic group)*100]. Body weight was expressed in grams. Hindpaws (left and right) weight was expressed in grams. Cytokine levels (IL-6, IL-1β, TNF-α and TGF-β1) of each hind paw was expressed in pg/ml. Circulating levels of TGF-β1 was expressed in pg/ml. Radiological index for each parameter (demineralization, erosions, periostal reaction, soft tissue damage, space joint, osteogenesis deformity) and total radiological index (total score) were calculated from the sum of the scores obtained for each parameter. The inter-group significances of the deviations between the values of vehicle-treated group (arthritic rats) and vehicle-treated group (non arthritic rats) were assessed by the Student t test or Mann-Whitney Rank Sum Test when equal variance or normality test failed. The inter-group significances of the deviations between the values of vehicle-treated group (arthritic rats) and E3- and 911- and Indomethacin-treated groups were assessed by the 1-way analysis of variance ANOVA followed by the non-paired Dunnett t test. A probability of P<0.05 was considered as significant. All statistical analysis was performed by the Sigmastat™ software.
# [2] = system: IL-6, IL-1β, TNF-α and TGF-β1; experiment: CFA arthritis rats, paw cytokine levels (ELISA); settings: D24; for left paw IL-1β level / left paw IL-6 level / left paw TGF-β1 level / left paw TNF-α level / right paw IL-1β level / right paw IL-6 level / right paw TGF-β1 level / right paw TNF-α level: arthritic rats, E3 1 mg/kg or 911 10 mg/kg i.v. D14+D19, indomethacin 3 mg/kg p.o.
# Experimental: as §1
# Preparation of Joint Homogenates: Frozen Hind Paws were Pulverized Using a Bio-Pulverizer. The powdered hind paws were then placed into a 50 ml conical centrifuge tube containing 3 ml PBS supplemented with 50 μl of anti-protease cocktail and homogenized on ice using Ultra-Turrax homogenizer (50% of the maximal speed). Homogenates were then centrifuged at 2000×g for 15 minutes at 4° C. and supernatants were filtered through 0.2 μm Sartorius filters, aliquoted and stored at −80° C. until use.
# Cytokine levels measurement: Cytokine levels of TNF-α (Rat TNF-a ELISA kit, ref. RTA00, Batch 213718, R&D Systems, France), IL-1 Rat […] ELISA kit, ref. RLB00, Batch 212435, R&D Systems, France), IL-6 Rat IL-6 ELISA kit, ref. R6000, Batch 211773, 214008 and 214362, R&D Systems, France), and TGF-β1 Human TGF-β1 ELISA kit, ref. DB100, Batch 212258 and 213610, R&D Systems, France) were determined in duplicate, according to the manufacturer's procedure. Aliquots of hind paw homogenates were stored at −80° C.
# as §2
# [3] = CFA arthritis rats, body weight (Example 8); settings: for body weight: arthritic rats
# Experimental: Five groups of 10 animals (5-weeks old male Lewis rats-LEWIS Lew/Ico, from Charles River Laboratories—Belgium) each were included in this study: Group 1: non arthritic rats/saline (vehicle), i.v. bolus, n=10; Group 2: arthritic rats/saline (vehicle), i.v. bolus, n=10; Group 3: arthritic rats/Indomethacin 3 mg/kg, p.o daily over 10 days, n=10; Group 4: arthritic rats/E3, 1 mg/kg, i.v. bolus, n=10; Group 5: arthritic rats/911, 10 mg/kg, i.v. bolus, n=10. The doses were expressed in terms of free active substance (mg/kg). E3 and 911 were extemporaneously prepared in saline from the stock solution to the desired concentration. E3 1 mg/kg: 3.41 mL of the stock solution (0.88 mg/ml) q.s.p. 15 mL of saline. 911 10 mg/kg: 12 mL of the stock solution (2.5 mg/ml) q.s.p. 15 mL of saline. All diluted solutions (before i.v. injection) were sterilized using a sterile filter unit of 0.20.μm. pH and osmolarity values of diluted solutions were measured before each i.v. injection. Before the first i.v., osmolarity (mosm/L) for saline, E3, and 911 were 278, 269, and 308 respectively; pH for saline, E3, and 911 were 5.93, 6.76, 6.71 respectively. Before the second i.v., osmolarity (mosm/L) for saline, E3, and 911 were 280, 270, and 309 respectively; pH for saline, E3, and 911 were 5.86, 6.72, and 6.59 respectively.
# E3 or 911 or saline were administered by i.v. bolus injection on Day 14 and Day 19 after arthritis induction in a coded and random order with a volume of 5 mL/kg. The non arthritic group was given by i.v. bolus injection of saline on Day 14 and Day 19 with a volume of 5 mL/kg. Indomethacin was extemporaneously prepared in 1% methylcellulose. Indomethacin was administered by oral route (p.o.) once daily over 10 days from Day 14 to Day 23 after arthritis induction in a coded and random order with a volume of 10 mL/kg.
# The animals were weighed once daily from Day 0 to Day 24 (except during the week-end days before the treatment: D 1, D 2, D 8, D 9, D 10). All measurements were performed between 9:00 and 12:00 am except at D 14 (7:30-9:00 am) and D 24 (7:30-8:00 am).
# as §2
# [4] = E3 1 mg/kg or 911 10 mg/kg i.v. D14+D19, indomethacin 3 mg/kg/day p.o., D24
# [5] = before treatment (dosing starts D14), D3
# [6] = before treatment (dosing starts D14), D4
# [7] = before treatment (dosing starts D14), D5
# [8] = before treatment (dosing starts D14), D6
# [9] = before treatment (dosing starts D14), D7
# [10] = before treatment (dosing starts D14), D11
# [11] = before treatment (dosing starts D14), D12
# [12] = before treatment (dosing starts D14), D13
# [13] = group later given E3 1 mg/kg or 911 10 mg/kg i.v. D14+D19 or indomethacin 3 mg/kg/day p.o., D0
# [14] = D14 (selection day, first dosing)
# [15] = E3 1 mg/kg or 911 10 mg/kg i.v. D14+D19, indomethacin 3 mg/kg/day p.o., D15
# [16] = E3 1 mg/kg or 911 10 mg/kg i.v. D14+D19, indomethacin 3 mg/kg/day p.o., D16
# [17] = E3 1 mg/kg or 911 10 mg/kg i.v. D14+D19, indomethacin 3 mg/kg/day p.o., D17
# [18] = E3 1 mg/kg or 911 10 mg/kg i.v. D14+D19, indomethacin 3 mg/kg/day p.o., D18
# [19] = E3 1 mg/kg or 911 10 mg/kg i.v. D14+D19, indomethacin 3 mg/kg/day p.o., D19
# [20] = E3 1 mg/kg or 911 10 mg/kg i.v. D14+D19, indomethacin 3 mg/kg/day p.o., D20
# [21] = E3 1 mg/kg or 911 10 mg/kg i.v. D14+D19, indomethacin 3 mg/kg/day p.o., D21
# [22] = E3 1 mg/kg or 911 10 mg/kg i.v. D14+D19, indomethacin 3 mg/kg/day p.o., D22
# [23] = E3 1 mg/kg or 911 10 mg/kg i.v. D14+D19, indomethacin 3 mg/kg/day p.o., D23
Molecule,left hindpaw weight [1],right hindpaw weight [1],left paw IL-1β level [2],left paw IL-6 level [2],left paw TGF-β1 level [2],left paw TNF-α level [2],right paw IL-1β level [2],right paw IL-6 level [2],right paw TGF-β1 level [2],right paw TNF-α level [2],"maximum body weight increase compared to vehicle-treated arthritic group [3, 4]","body weight [3, 5]","body weight [3, 6]","body weight [3, 7]","body weight [3, 8]","body weight [3, 9]","body weight [3, 10]","body weight [3, 11]","body weight [3, 12]","body weight [3, 13]",further results
"COc1ccc2c(c1)c(CC(=O)O)c(C)n2C(=O)c1ccc(Cl)cc1 [Indomethacin, reference compound]",2.23±0.04 grams,2.20±0.05 grams,4029.1 ± 449.9 pg/mL,249.7 ± 60.4 pg/mL,7708.2 ± 293.9 pg/mL,29.9 ± 3.6 pg/mL,3884.4 ± 534.4 pg/mL,295.9 ± 47.8 pg/mL,7057.4 ± 335.6 pg/mL,30.6 ± 5.7 pg/mL,about 43 g,217 ± 4 grams,225 ± 4 grams,235 ± 4 grams,239 ± 4 grams,246 ± 4 grams,242 ± 7 grams,235 ± 7 grams,227 ± 6 grams,202 ± 3 grams,"decrease of TGF-β1 level in right paw compared to vehicle-treated arthritic group ([2]; indomethacin 3 mg/kg/day p.o. 10 days): about 1.3 times; body weight [3, 14]: 224 ± 5 grams; body weight [3, 15]: 230 ± 4 grams; body weight [3, 16]: 230 ± 5 grams; body weight [3, 17]: 231 ± 4 grams; body weight [3, 18]: 234 ± 4 grams; body weight [3, 19]: 236 ± 4 grams; body weight [3, 20]: 241 ± 4 grams; body weight [3, 21]: 246 ± 4 grams; body weight [3, 22]: 248 ± 5 grams; body weight [3, 23]: 253 ± 5 grams; body weight [3, 4]: 261±5 grams"
B1,3.86±0.14 grams,3.72±0.13 grams,5060.0 ± 473.5 pg/mL,234.4 ± 35.2 pg/mL,9796.7 ± 491.2 pg/mL,23.6 ± 2.5 pg/mL,4853.5 ± 605.0 pg/mL,214.6 ± 47.2 pg/mL,9362.7 ± 423.4 pg/mL,21.5 ± 2.5 pg/mL,about 46 g,222 ± 3 grams,230 ± 3 grams,241 ± 3 grams,243 ± 3 grams,249 ± 3 grams,242 ± 6 grams,237 ± 6 grams,230 ± 5 grams,206 ± 4 grams,"effect on IL-6, IL-1β, TNF-α or TGF-β1 levels in both paws vs vehicle-treated arthritic group ([2]; 1 mg/kg i.v. on D14 and D19): did not affect; body weight [3, 14]: 225 ± 5 grams; body weight [3, 15]: 223 ± 5 grams; body weight [3, 16]: 224 ± 5 grams; body weight [3, 17]: 227 ± 4 grams; body weight [3, 18]: 232 ± 4 grams; body weight [3, 19]: 235 ± 4 grams; body weight [3, 20]: 238 ± 4 grams; body weight [3, 21]: 245 ± 4 grams; body weight [3, 22]: 250 ± 5 grams; body weight [3, 23]: 257 ± 5 grams; body weight [3, 4]: 264±5 grams"
